Results on one compound are retold here after patent publication US8703188B1, “Dispersible tablet” (Azanta A/S, priority 2012, dated 2014).

In brackets after ≈: the same amount, converted by molar mass.

The nature of series [1]: Solubility of Nimorazole in water. It is filed as physicochemical.
The conditions of series [2]: The Merck Index, 14th Edition; cited from earlier work.

Turning to `O=[N+]([O-])c1cncn1CCN1CCOCC1` [Nimorazole], the concentration in solution in series [1] (solubility) was 4910 µg/mL (≈ 21.7 mM). For the same compound, the solubility in water entry in series [2] was “slightly soluble”.
